From PubChem BioAssay AID330 (DTP/NCI, 2004)
Where “and” joins values, the source holds several entries; their conditions need not be identical. Equal values may be shown once. Toxic doses and inconclusive results are not listed. How the source made its calls: active means survival T/C of 150% or more; inactive means T/C below 125% in these data.

System: P388 leukemia ip, CD2F1 mice, survival T/C
Experiment: NCI In Vivo Anticancer Drug Screen. Data for tumor model P388 Leukemia (intraperitoneal) in CD2F1 (CDF1) mice
Settings: endpoint: median survival time, higher = longer survival
How it was run: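 Mice carrying the transplanted tumor received test compound or vehicle. Survival was recorded in each group, and the value is the treated-group measurement divided by that of the vehicle-treated control group.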

[1] = dose: 50.0 mg/kg/injection, schedule: Q01DX009 (ip), vehicle: saline with Tween-80
[2] = dose: 100.0 mg/kg/injection, schedule: Q01DX009 (ip), vehicle: saline with Tween-80
[3] = dose: 12.5 mg/kg/injection, schedule: Q01DX009 (ip), vehicle: saline with Tween-80
[4] = dose: 25.0 mg/kg/injection, schedule: Q01DX009 (ip), vehicle: saline with Tween-80
[5] = dose: 200.0 mg/kg/injection, schedule: Q01DX009 (ip), vehicle: saline with Tween-80
[6] = dose: 50.0 mg/kg/injection, schedule: Q01DX009 (ip), vehicle: saline
[7] = dose: 100.0 mg/kg/injection, schedule: Q01DX009 (ip), vehicle: saline
[8] = dose: 200.0 mg/kg/injection, schedule: Q01DX009 (ip), vehicle: saline
[9] = dose: 60.0 mg/kg/injection, schedule: Q01DX005 (ip), vehicle: saline with Tween-80
[10] = dose: 120.0 mg/kg/injection, schedule: Q01DX005 (ip), vehicle: saline with Tween-80
[11] = dose: 240.0 mg/kg/injection, schedule: Q01DX005 (ip), vehicle: saline with Tween-80
[12] = dose: 50.0 mg/kg/injection, schedule: Q01DX005 (ip), vehicle: saline with Tween-80
[13] = dose: 100.0 mg/kg/injection, schedule: Q01DX005 (ip), vehicle: saline with Tween-80
[14] = dose: 200.0 mg/kg/injection, schedule: Q01DX005 (ip), vehicle: saline with Tween-80
[15] = dose: 60.0 mg/kg/injection, schedule: Q01DX005 (ip), vehicle: Klucel (hydroxypropylcellulose) (HPC)
[16] = dose: 120.0 mg/kg/injection, schedule: Q01DX005 (ip), vehicle: Klucel (hydroxypropylcellulose) (HPC)

Measured: T/C

O=Nc1c(O)n(-c2ccccc2)c(=O)[nH]c1=O
inactive: dose: 50.0 mg/kg/injection, schedule: Q04DX002 (ip), vehicle: suspension in saline 100 % of control | dose: 100.0 mg/kg/injection, schedule: Q04DX002 (ip), vehicle: suspension in saline 101 % of control | dose: 200.0 mg/kg/injection, schedule: Q04DX002 (ip), vehicle: suspension in saline 101 % of control

CC(=O)N1CCN(c2ccc(OCC3COC(Cn4ccnc4)(c4ccc(Cl)cc4Cl)O3)cc2)CC1 (centres undefined)
inactive: [1] 88 % of control | [2] 87 % of control

CN(C)Cc1cccc[c]1[Sn]([CH3])([Br])[c]1ccccc1CN(C)C
inactive: dose: 3.12 mg/kg/injection, schedule: Q01DX009 (ip), vehicle: saline 101 % of control and 113 % of control and 88 % of control

COC(=O)/C=C/c1cc[n+]([O-])cc1
inactive: dose: 50.0 mg/kg/injection, schedule: Q01DX005 (ip), vehicle: saline 93 % of control | dose: 100.0 mg/kg/injection, schedule: Q01DX005 (ip), vehicle: saline 101 % of control | dose: 200.0 mg/kg/injection, schedule: Q01DX005 (ip), vehicle: saline 101 % of control

O=C1CSC(c2cccs2)N1CCN1C(=O)CSC1c1cccs1 (centres undefined)
inactive: dose: 100.0 mg/kg/injection, schedule: Q04DX002 (ip), vehicle: saline with Tween-80 100 % of control | dose: 200.0 mg/kg/injection, schedule: Q04DX002 (ip), vehicle: saline with Tween-80 96 % of control

O=C(CBr)c1cccc([N+](=O)[O-])c1
inactive: dose: 6.25 mg/kg/injection, schedule: Q01DX009 (ip), vehicle: saline with Tween-80 101 % of control | [3] 100 % of control | [4] 109 % of control | [1] 100 % of control

CCOC(=O)NCCCBr
inactive: [1] 105 % of control | [2] 99 % of control | [5] 107 % of control

CSC(=S)N/N=C(\C)c1ccccn1
inactive: [6] 92 % of control | [7] 92 % of control | [8] 99 % of control | dose: 400.0 mg/kg/injection, schedule: Q01DX009 (ip), vehicle: saline 106 % of control

CSCCC(NC(=O)C(Cc1ccccc1)NC(=O)CNC(=O)C(C)NC(=O)C(N)Cc1ccc(O)cc1)C(N)=O (centres undefined)
inactive: dose: 8.75 mg/kg/injection, schedule: Q01DX005 (ip), vehicle: saline 103 % of control | dose: 17.5 mg/kg/injection, schedule: Q01DX005 (ip), vehicle: saline 107 % of control | dose: 35.0 mg/kg/injection, schedule: Q01DX005 (ip), vehicle: saline 100 % of control | dose: 70.0 mg/kg/injection, schedule: Q01DX005 (ip), vehicle: saline 100 % of control | dose: 140.0 mg/kg/injection, schedule: Q01DX005 (ip), vehicle: saline 104 % of control

Nc1c(Br)cc(Br)c2c1[nH]c(=O)c1ccccc12
inactive: [9] 96 % of control | [10] 90 % of control | [11] 107 % of control

O=S(=O)(O)CN(CS(=O)(=O)O)c1nc(N(CS(=O)(=O)O)CS(=O)(=O)O)nc(N(CS(=O)(=O)O)CS(=O)(=O)O)n1
inactive: [12] 92 % of control | [13] 99 % of control | [14] 101 % of control

O=C1O/C(=C\c2ccccc2)c2c(Br)c(Br)c(Br)c(Br)c21
inactive: [1] 94 % of control | [2] 93 % of control | [5] 99 % of control | dose: 400.0 mg/kg/injection, schedule: Q01DX009 (ip), vehicle: saline with Tween-80 99 % of control

O=C(Nc1ccc(NC(=O)Nc2cccc(C3=NCCCN3)c2)cc1)Nc1ccc(C2=NCCCN2)cc1
inactive: dose: 2.5 mg/kg/injection, schedule: Q01DX009 (ip), vehicle: saline with Tween-80 113 % of control | dose: 5.0 mg/kg/injection, schedule: Q04DX003 (ip), vehicle: saline with Tween-80 100 % of control | dose: 10.0 mg/kg/injection, schedule: Q04DX003 (ip), vehicle: saline with Tween-80 109 % of control

CCOc1c(N=Nc2cccc([N+](=O)[O-])c2)c(C)nn1C(=S)SC
inactive: [15] 93 % of control | [16] 90 % of control

Nc1cc2c3c(cccc3c1)C(=O)N2
inactive: dose: 100.0 mg/kg/injection, schedule: Q01DX001 (ip), vehicle: saline with Tween-80 106 % of control | dose: 200.0 mg/kg/injection, schedule: Q01DX001 (ip), vehicle: saline with Tween-80 106 % of control

CN1C=C(C#N)CCC1Sc1ccc(Cl)cc1 (centres undefined)
inactive: [9] 105 % of control | [10] 103 % of control | [11] 104 % of control

COc1ccc(C(C)(C)c2cc3c(cc2OCCO)OCO3)cc1
inactive: [9] 96 % of control | [10] 101 % of control | [11] 105 % of control

O=[N+]([O-])CCc1ccc(OC2OC(CO)C(O)C(O)C2O)cc1 (centres undefined)
inactive: dose: 100.0 mg/kg/injection, schedule: Q04DX002 (ip), vehicle: saline 104 % of control | dose: 200.0 mg/kg/injection, schedule: Q04DX002 (ip), vehicle: saline 102 % of control | dose: 400.0 mg/kg/injection, schedule: Q04DX002 (ip), vehicle: saline 97 % of control

COc1cccc(N)c1N
inactive: dose: 25.0 mg/kg/injection, schedule: Q01DX009 (ip), vehicle: saline 99 % of control | dose: 25.0 mg/kg/injection, schedule: Q01DX009 (ip), vehicle: suspension in saline 103 % of control | [6] 100 % of control | dose: 50.0 mg/kg/injection, schedule: Q01DX009 (ip), vehicle: suspension in saline 106 % of control | [7] 106 % of control | dose: 100.0 mg/kg/injection, schedule: Q01DX009 (ip), vehicle: suspension in saline 107 % of control | [8] 96 % of control | dose: 200.0 mg/kg/injection, schedule: Q01DX009 (ip), vehicle: suspension in saline 91 % of control

O=C(O)CC(NC(=O)c1ccccc1)C(=O)O (centres undefined)
inactive: [12] 96 % of control | [13] 102 % of control | [14] 92 % of control

O=C(Cc1ccc(OCc2ccccc2)cc1)NCc1ccc2c(c1)OCO2
inactive: dose: 15.0 mg/kg/injection, schedule: Q01DX005 (ip), vehicle: saline with Tween-80 96 % of control | dose: 30.0 mg/kg/injection, schedule: Q01DX005 (ip), vehicle: saline with Tween-80 91 % of control | [9] 89 % of control

O=C(CO)N(CCO)CCO
inactive: [6] 98 % of control | [7] 95 % of control | [8] 96 % of control

CCCCCC1c2cc(O)ccc2OC1N1CCOCC1 (centres undefined)
inactive: [3] 105 % of control | [4] 101 % of control | [1] 113 % of control and 120 % of control | [2] 119 % of control and 124 % of control

Nc1ccccc1C(=O)CCc1c[nH]c2ccccc12
inactive: [9] 96 % of control | [10] 90 % of control | [11] 86 % of control

CC(Nc1ccc(Cl)cc1)S(=O)(=O)O (centres undefined)
inactive: [6] 106 % of control | [7] 100 % of control | [8] 106 % of control

NC(=O)Nc1nc(C(F)(F)F)cc(=O)[nH]1
inactive: [1] 103 % of control | [2] 106 % of control | [5] 99 % of control

N#Cc1cccc(C(N)=O)c1C(N)=O
inactive: [12] 104 % of control | [13] 98 % of control | [14] 95 % of control

O=C1c2[nH]cnc2N(Cc2ccc(Cl)cc2)C2=NCCN12
inactive: dose: 50.0 mg/kg/injection, schedule: Q01DX005 (ip), vehicle: Klucel (hydroxypropylcellulose) (HPC) 102 % of control | dose: 100.0 mg/kg/injection, schedule: Q01DX005 (ip), vehicle: Klucel (hydroxypropylcellulose) (HPC) 100 % of control

COc1ccc2nc(N=Nc3ccc(N4CCOCC4)cc3C)sc2c1
inactive: dose: 100.0 mg/kg/injection, schedule: Q01DX001 (ip), vehicle: Klucel (hydroxypropylcellulose) (HPC) 86 % of control | dose: 200.0 mg/kg/injection, schedule: Q01DX001 (ip), vehicle: Klucel (hydroxypropylcellulose) (HPC) 86 % of control | dose: 400.0 mg/kg/injection, schedule: Q01DX001 (ip), vehicle: Klucel (hydroxypropylcellulose) (HPC) 88 % of control

CCOC(=O)C(NC(C)=O)(C(=O)OCC)C1CCCCC1=O (centres undefined)
inactive: dose: 60.0 mg/kg/injection, schedule: Q01DX005 (ip), vehicle: saline 108 % of control | dose: 120.0 mg/kg/injection, schedule: Q01DX005 (ip), vehicle: saline 96 % of control | dose: 240.0 mg/kg/injection, schedule: Q01DX005 (ip), vehicle: saline 99 % of control

CN(C)c1ccc2c(c1)C(=O)N(OS(=O)(=O)c1ccccc1)C2=O
inactive: [12] 100 % of control | [13] 103 % of control | [14] 96 % of control

CCCNCC(O)COc1ccc2c3c(c(=O)oc2c1)CCC3 (centres undefined)
inactive: [15] 96 % of control | [16] 96 % of control
